Reference: patent US6440979B1, “Aryl isoguanines” (Euro-Celtique, S.A., priority 1994, dated 2002)
Where two headings read alike, the source gives them in different places.

How the values were obtained:
[1] = biological target: T1, Type V PDE isolated from platelets (Homo sapiens, UniProt O76074); experiment: Type V PDE inhibition, hydrolysis of [3H]-cyclic GMP; assay type: biochemical; conditions: cyclic GMP 0.2 uM; 2.5% DMSO
T1 construct: Fractions that contain PDE V are pooled and dialyzed overnight; from tissue
Experimental: The Type V PDE is isolated using a procedure similar to that previously described by Weishaar et al., Hypertension 15:528, (1990). Briefly, 1-2 units of platelets are suspended in an equal volume of buffer A (20 mM Tris-HCl, pH 7.5, containing 2 mM magnesium acetate, 1 mM dithiothreitol, and 5 mM Na2EDTA) using a polytron. The proteinase inhibitor phenylmethylsulfonyl fluoride (PMSF) are also included in this buffer at a final concentration of 200 uM. This and all subsequent procedures are performed at 0-4° C. The homogenate is then centrifuges at 100,000×g for 60 minutes. The supernatant is then removed and filtered through four layers of gauze and applied to a DEAE-Trisacryl M column. The column is washed with several bed volumes of buffer B (20 mM Tris-HCl, pH 7.5, containing 2 mM magnesium acetate, 1 mM diothiothreitol, and 200 uM PMSF) and eluted by two successive linear NaCl gradients (0.05-0.15 M, 300 ml total; 0.15-0.40 M, 200 ml total). Five ml fractions are collected and assayed for cyclic AMP and cyclic GMP PDE activity. Fractions that contain PDE V are pooled and dialyzed overnight against 4 L of buffer C (20 mm Tris-HCl, pH 7.5, containing 2 mM magnesium acetate and proteinase inhibitors). The dialyzed PDE V is then concentrated to 10% of the original volume, diluted to 50% with ethylene glycol monoethyl ether and stored at −20° C. PDE V can typically be retained for up to four weeks with little or no loss of activity.
Enzyme activity are assessed by measuring the hydrolysis of [^3H]-cyclic […], as described by Thompson et al. (Thompson, W. J., Teraski, W. L., Epstein, P. N., Strada, S. J.: Adv. Cyclic Nucleotide Res. 10:69, 1979). The cyclic GMP concentration used in this assay is 0.2 uM, which approximates to the Km value. Protein concentration is adjusted to ensure that no more than 15% of the available substrate is hydrolyzed during the incubation period.
All test compounds are dissolved in dimethyl sulfoxide (final concentration of 2.5%). […] The reference Type V PDE inhibitor zaprinast is evaluated with each assay.
(§1) The compounds are tested over concentration range: 0.1, 1, 10, 100 uM (n=1), and IC50 determinations are made using 5 appropriate concentrations (n=2).

[2] = test system: PDE IV isolated from bovine tracheal smooth muscle; experiment: Type IV PDE inhibition, hydrolysis of [3H]-cyclic AMP; assay type: biochemical; conditions: cyclic AMP 0.2 μM; 2.5% DMSO
Source text: The PDE IV inhibitory compounds of the present invention may be examined for their PDE IV inhibitory effects via the techniques set forth in the following examples, wherein the ability of the compounds to inhibit PDE IV isolated from bovine tracheal smooth muscle is set forth.
The Type IV PDE is isolated from bovine tracheal smooth muscle using a procedure similar to that previously described by Silver, P. J. et al., Eur. J. Pharmacol. 150:85,1988. Briefly, smooth muscle from bovine trachea is minced and homogenized using a polytron in 10 volumes of an extraction buffer containing 10 mm Tris-acetate (pH 7.5), 2 mM magnesium chloride, 1 mM dithiothreitol and 2,000 units/ml of aprotinin. This and all subsequent procedures are performed at 0-4° C. The homogenate is sonicated and then centrifuged at 48,000×g for 30 minutes. The resulting supernatant is applied to a DEAE Trisacryl M column previously equilibrated with sodium acetate and dithiothreitol. After applications of the sample, the column is washed with sodium acetate/dithiothreitol, after which the different forms of PDE are eluted from the column using a linear Tris-HCl/NaCl gradient. Fractions containing Type IV PDE are collected, dialyzed and concentrated to 14% of the original volume. The concentrated fractions are diluted to 50% with ethylene glycol and stored at −20° C.
(§2) Enzyme activity is assessed by measuring the hydrolysis of [^3H]-cyclic AMP, as described by Thompson, W. J. et al., Adv. Cyclic Nucleotide Res. 10:69, 1979. The cyclic AMP concentration used in this assay is 0.2 μM, which approximates the Km value. Protein concentration is adjusted to ensure that no more than 15% of the available substrate is hydrolyzed during the incubation period.
(§3) All test compounds are dissolved in dimethyl sulfoxide (final concentration of 2.5%). This concentration of dimethyl sulfoxide inhibits enzyme activity by approximately 10%.
as §1

[3] = biological target: T2, Type III PDE isolated from human platelets (Homo sapiens, UniProt Q14432); experiment: Type III PDE inhibition, hydrolysis of [3H]-cyclic AMP; assay type: biochemical
T2 construct: Fractions containing PDE III activity are pooled and dialyzed overnight; from tissue; host or cells: human platelets (100,000 x g supernatant, DEAE-Trisacryl M fraction)
Experimental: The Type III PDE is isolated from human platelets using a procedure similar to that previously described by Weishaar, R. E. et al., Biochem. Pharmacol., 35:787, 1986. Briefly, 1-2 units of platelets are suspended in an equal volume of buffer (20 mM Tris-HCl, pH 7.5, containing 2 mM magnesium acetate, 1 mM dithiothreitol, and 5 mM Na2 EDTA). The proteinase inhibitor phenylmethyl-sulfonyl fluoride (PMSF) is also included in this buffer at a final concentration of 200 μM. The suspension is homogenized using a polytron and the homogenate centrifuged at 100,000×g for 60 minutes. This and all subsequent procedures are performed at 0-4° C. The supernatant is then filtered through four layers of gauze and applied to a DEAE-Trisacryl M column, previously equilibrated with buffer B (20 mM Tris-HCl, pH 7.5, containing 1 mM magnesium acetate, 1 mM dithiothreitol and 200 μM PMSF). After application of the sample, the column is washed with several bed volumes of buffer B, after which the different forms of PDE are eluted from the column using two successive linear NaCl gradients (0.05-0.15 M, 300 ml total; 0.15-0.40 Ma 200 ml total); Five ml fractions are collected and assayed for cyclic AMP and cyclic GMP PDE activity., Fractions containing PDE III activity are pooled and dialyzed overnight against 4 L of buffer B. The dialyzed PDE III is then concentrated to 10% of the original volume, diluted to 50% with ethylene glycol monoethyl ether and stored at −20° C. PDE III can typically be retained for up to four weeks with little or no loss of activity.
as §2, with “[(^3H]-cyclic” for “[^3H]-cyclic”, “approximates to” for “approximates”
as §3, §1

[4] = cyclic AMP 0.2 μM, 2.5% DMSO, read-out: PDE ACTIVITY IC50 PDE III

T2 sequence (Q14432 whole entry): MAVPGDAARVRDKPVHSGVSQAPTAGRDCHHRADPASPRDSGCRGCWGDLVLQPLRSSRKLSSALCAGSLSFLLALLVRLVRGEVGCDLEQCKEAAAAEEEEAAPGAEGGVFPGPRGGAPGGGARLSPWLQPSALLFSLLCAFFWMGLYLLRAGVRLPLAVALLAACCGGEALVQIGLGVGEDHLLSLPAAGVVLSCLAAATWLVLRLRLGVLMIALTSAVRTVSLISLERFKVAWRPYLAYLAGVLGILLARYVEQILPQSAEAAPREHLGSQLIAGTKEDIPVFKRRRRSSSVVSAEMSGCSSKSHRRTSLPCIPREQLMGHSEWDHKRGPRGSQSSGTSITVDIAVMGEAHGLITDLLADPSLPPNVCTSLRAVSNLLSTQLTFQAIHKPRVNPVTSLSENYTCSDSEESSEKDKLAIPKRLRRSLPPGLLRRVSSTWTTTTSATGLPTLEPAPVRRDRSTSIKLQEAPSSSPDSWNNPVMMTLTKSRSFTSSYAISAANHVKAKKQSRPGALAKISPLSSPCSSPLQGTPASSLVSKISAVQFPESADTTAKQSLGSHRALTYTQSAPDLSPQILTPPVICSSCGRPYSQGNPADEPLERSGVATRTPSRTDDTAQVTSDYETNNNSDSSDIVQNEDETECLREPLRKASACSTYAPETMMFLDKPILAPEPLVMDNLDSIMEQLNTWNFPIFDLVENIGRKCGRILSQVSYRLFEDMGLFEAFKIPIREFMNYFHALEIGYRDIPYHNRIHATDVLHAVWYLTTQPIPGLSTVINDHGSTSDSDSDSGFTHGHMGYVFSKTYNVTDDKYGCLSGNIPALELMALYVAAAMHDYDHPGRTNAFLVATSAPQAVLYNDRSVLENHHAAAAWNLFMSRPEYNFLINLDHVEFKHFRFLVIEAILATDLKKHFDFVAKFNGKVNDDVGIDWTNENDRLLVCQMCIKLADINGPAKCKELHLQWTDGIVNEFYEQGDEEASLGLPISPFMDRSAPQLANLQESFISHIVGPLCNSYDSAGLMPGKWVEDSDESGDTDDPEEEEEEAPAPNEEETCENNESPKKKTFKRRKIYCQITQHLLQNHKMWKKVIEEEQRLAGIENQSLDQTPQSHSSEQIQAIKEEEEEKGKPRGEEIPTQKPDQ

Structure (SMILES): CCNc1nc(=O)n(Cc2ccc(OC)c(OC3CCCC3)c2)c2nc(C(C)C)[nH]c12 [compound 12, 3-(3-Cyclopentyloxy-4-methoxy-benzyl)-N^6-ethyl-8-isopropyl-isoguanine]
- melting point: 110 to 115 °C

Structure (SMILES): CC(C)c1nc2c([nH]1)c(=S)[nH]c(=O)n2Cc1ccc(Cl)cc1 [Ex. 5a, 3-(4-Chlorobenzyl)-8-isopropyl-6-thioxanthine]
- IC50 [1]: 2 µM
- IC50 [2]: 8.6 µM
- IC50 [3, 4]: 29 µM

Structure (SMILES): CCCn1c(=O)[nH]c(=S)c2[nH]c(Cc3ccc4ccccc4c3)nc21 [Ex. 10, 8-(2-naphthylmethyl)-3-propyl-6-thio-xanthine]
- IC50 [1]: 3.8 µM
- IC50 [2]: 2.8 µM
- IC50 [3, 4]: 2.7 µM
- melting point: 220 to 223 °C

Structure (SMILES): COc1ccc(Cn2c(=O)[nH]c(=S)c3[nH]c(C(C)C)nc32)cc1OC1CCCC1 [Ex. 1, 3-(3-Cyclopentyloxy-4-methoxy-benzyl)-8-isopropyl-6-thioxanthine]
- IC50 [1]: 25.7 µM
- IC50 [3, 4]: 25 µM
- IC50 ([3]; read-out: IC50 for PDE III inhibition): ~25 µM

Structure (SMILES): CCNc1nc(=O)n(CC)c2nc(C3CC3)[nH]c12 [Ex. 7, 8-Cyclopropyl-3, N^6-diethyl-isoguanine]
- IC50 [2]: 51 µM
- IC50 [3, 4]: 207 µM

Structure (SMILES): O=c1[nH]c(=S)c2[nH]cnc2n1Cc1ccc(Cl)cc1 [Ex. 2, 3-(4-Chlorobenzyl)-6-thioxanthine]
- IC50 [2]: 78 µM
- IC50 [3, 4]: 25 µM
- melting point: 313 to 317 °C

Structure (SMILES): CC(C)c1nc2c([nH]1)c(=S)[nH]c(=O)n2-c1cccc(Cl)c1 [Ex. 11, 3-(3-Chlorophenyl)-8-isopropyl-6-thioxanthine]
- IC50 [1]: 65.4 µM
- IC50 [3, 4]: 311 µM

Structure (SMILES): CCNc1nc(=O)n(Cc2ccc(Cl)cc2)c2nc(C(C)C)[nH]c12 [Ex. 5b, 3-(4-Chlorobenzyl)-N^6-ethyl-8-isopropyl-isoguanine]
- IC50 [1]: 0.5 µM
- IC50 [2]: 9.4 µM
- IC50 [3, 4]: 317 µM

Structure (SMILES): COc1ccc(Cn2c(=O)[nH]c(=S)c3[nH]c(C(C)C)nc32)cc1OC1CCCC1 (hydrate or solvate) [Ex. 1, 3-(3-Cyclopentyloxy-4-methoxy-benzyl)-8-isopropyl-6-thioxanthine]
- melting point: 192 to 193 °C

Structure (SMILES): CC(C)c1nc2c([nH]1)c(=S)[nH]c(=O)n2Cc1cccc(Cl)c1 [Ex. 4, 3-(3-Chlorobenzyl)-8-isopropyl-6-thioxanthine]
- IC50 [1]: 0.7 µM
- IC50 [2]: 4.1 µM
- IC50 [3, 4]: 44 µM
- melting point: 218 to 220 °C

Structure (SMILES): CCCn1c(=O)[nH]c(=S)c2[nH]c(Cc3ccc(OC)c(OC)c3)nc21 [Ex. 9, 8-(3,4-dimethoxybenzyl)-3-propyl-6-thio-xanthine]
- IC50 [2]: 8.5 µM
- IC50 [3, 4]: 23.6 µM
- melting point: 237 to 239 °C

Structure (SMILES): CCn1c(=O)[nH]c(=S)c2[nH]c(Cc3ccc(OC)c(OC4CCCC4)c3)nc21 [Ex. 8, 8-(3-cyclopentyloxy-4-methoxybenzyl)-3-ethyl-6-thio-xanthine]
- IC50 [1]: 23.9 µM
- IC50 [2]: 4 µM
- IC50 [3, 4]: 28.2 µM
- melting point: 195 to 197 °C

Structure (SMILES): CCCNc1nc(=O)n(CC2CC2)c2nc(C(C)C)[nH]c12 [Ex. 6, 3-Cyclopropylmethyl-8-isopropyl-N^6-propyl-isoguanine]
- IC50 [2]: 24 µM
- IC50 [3, 4]: 492 µM
- melting point: 208 to 210 °C

Structure (SMILES): COc1ccc(C2CNC(=O)C2)cc1OC1CCCC1 (centres unmarked) [Rolipram, reference compound]
- IC50 [2]: 2.6 µM
- IC50 [3, 4]: 790 µM

Structure (SMILES): CC(C)c1nc2c([nH]1)c(=S)[nH]c(=O)n2Cc1ccncc1 [Ex. 3, 8-Isopropyl-3-(4-picolyl)-6-thioxanthine]
- IC50 [2]: 18.2 µM
- IC50 [3, 4]: 215 µM
- melting point: 310 to 314 °C (dec.)
